Assay results taken from patent US20250051762A1, “PLATFORM USING DNA-ENCODED SMALL MOLECULE LIBRARIES AND RNA SELECTION TO DESIGN SMALL MOLECULES THAT TARGET RNA” (University of Florida Research Foundation, Incorporated, priority 2021, published 2025).

Tests used:
[1] = test system: MCF-10a cells expressing mutant pri-miR-27a; experiment: Migration of MCF-10a cells expressing mutant pri-miR-27a; format: cell-based, human; conditions: forced expression of mutated pri-miR-27a
Protocol: (§1) MCF-10a cells were transfected with plasmids to express pri-miR-27a and mutant pri-miR-27a in 12- or 24-well plates with Lipofectamine 2000 per the manufacturer's protocol. For treatment of compounds, stocks were diluted in growth medium and added to cells for 48 h. The miRCURY miR-27a LNA inhibitor (QIAGEN, Cat #339121) was used as a positive control by diluting in growth medium to a final concentration of 1 nM. The miRCURY LNA Negative Control (QIAGEN, Cat #YI00199007-DDA) was used as a negative control, which has also diluted in growth medium to a final concentration of 1 nM.
Migration assay: MDA-MB-231 cells were grown in 60 mm diameter dishes and treated as described in “Cell culture and compound treatment” for 12 h. The medium was then removed and replaced with growth medium lacking FBS but with the same concentration of compound. After 12 h of serum starvation, the cells were detached and seeded to ThinCert™ (GBO) 24-well hanging inserts with 8 μm pores (˜5×10^4 cells per insert). Fresh growth medium with FBS was dispended in a 24-well plate (600 μL each well), and the ThinCert™ hanging inserts containing cells were then placed into the wells. After incubating for 24 h, the growth medium in the inserts was removed, and the remaining cells were washed twice with 1×DPBS. […] The remaining cells were then imaged by microscopy and counted for quantification (3 fields of view per sample).

MDA-MB-231 cells = experiment: miRNome profiling of all miRNAs detectable in MDA-MB-231 cells; format: cell-based, human; conditions: 1 μM, FDR <1%, P<0.01
mutant pri-miR-27a = experiment: Competitive MST binding assay with unlabeled mutated pri-miR-27a; set-up: species or system human; conditions: two 5′GAG/3′CCC loops mutated to base pairs
Protocol: To measure the affinity of 9 for the 5′GAG/3′CCC loop in the context of pri-miR-27a, a competitive binding assay was used with a constant concentration of compound (100 nM) and the Cy5-labeled model of pri-miR-27a's Drosha site, and varying concentrations of unlabeled miR-27a precursor as reported by miRBase. (35) That is, the miR-27a precursor competes with the Cy5-labeled model of pri-miR-27a's Drosha site for binding 9. […] Thus, the compounds identified by using DEL-2DCS can bind avidly to biologically relevant RNA targets identified by Inforna.
For competitive binding assays, both WT and mutant pri-miR-27a RNAs were transcribed as previously described (see Table S6 for sequences). (11) The RNA was purified by gel electrophoresis and folded in 1× Binding Buffer at final concentration of 750 nM by heating at 60° C. for 5 min and then slowly cooling to room temperature. […] The resulting data were analyzed by SigmaPlot and fitted by Equation 2 to yield the competitive dissociation constant (Kd competitive).
where F is the concentration of fluorescence-labeled RNA; unbound and bound refers to the thermophoresis signal at completely unbound and bound state of RNA, respectively; c is the concentration of the compound; f (c) is the thermophoresis signal at compound concentration of c; Kd is the dissociation constant. […]

pri-miR-27a [2] = experiment: RT-qPCR of pri- and mature miR-27a in MDA-MB-231 TNBC cells; format: cell-based, human; conditions: MDA-MB-231, RT-qPCR
Protocol: (§2) Cell lines. Compounds were tested in MDA-MB-231 TNBC cells (HTB-26, ATCC), LNCaP metastatic prostate cancer cells (gifted from Junli Luo lab), MCF-7 (HTB-22, ATCC) breast cancer cells, HeLa cervical adenocarcinoma cells (CCL-2, ATCC), and MCF-10a, a model of healthy breast epithelial cells (CRL-10317, ATCC).
Cell culture and compound treatment. All cells were maintained at 37° C. with 5% CO2. MDA-MB-231 and LNCaP cells were cultured in RPMI 1640 medium with L-glutamine & 25 mM HEPES (Corning) supplemented with 10% (v/v) fetal bovine serum (FBS; Sigma) and 1× (v/v) Antibiotic-Antimycotic solution (Corning). MCF-7 and HeLa cells were cultured in DMEM medium with 4.5 g/L glucose (Corning), supplemented with 10% FBS, 1× (v/v) Glutagro (Corning), and 1× (v/v) Antibiotic-Antimycotic solution. MCF10a cells were cultured in DMEM/F12 50/50 with L-glutamine & 15 mM HEPES (Corning), supplemented with 10% FBS, 20 ng/mL human epidermal growth factor (Pepro Tech Inc.), […] hydrocortisone (Pfaltz & Bauer), 100 ng/mL cholera toxin (Sigma-Aldrich), 10 μg/mL insulin (Sigma-Aldrich), and 1× (v/v) Antibiotic-Antimycotic solution.
as §1
Analysis of mRNA abundance: Each cell line was grown as a monolayer in 12- or 24-well plates and treated as described in “Cell culture and compound treatment”. After 48 h, the cells were lysed, and total RNA was harvested using a Zymo Quick RNA Miniprep Kit per the manufacturer's protocol. To measure the abundance of mature miRNAs, approximately 250 ng of total RNA was reverse transcribed using the High Flex Buffer provided in a miScript II RT Kit (Qiagen) per the manufacturer's protocol (10 μL total reaction volume). For pri-miRNAs and mRNA, approximately 300 ng of total RNA was reverse transcribed using a qScript cDNA synthesis kit (10 μL total reaction volume, Quanta BioSciences). For all types of RNAs, 2 μL of the RT reaction was used for qPCR using SYBR Green Master Mix and a QuantStudio™ 5 Real-Time PCR System. Relative abundance of mature miRNAs was calculated by normalizing to RNU6, and relative abundance for pri-miRNAs and mRNAs was calculated by normalizing to 18S ribosomal RNA, using the […]. (12)

pri-miR-27a [3] = experiment: RT-qPCR of pri- and mature miR-27a in LNCaP cells; format: cell-based, human
Protocol: as §2
Cell culture and compound treatment. All cells were maintained at 37° C. with 5% CO2. MDA-MB-231 and LNCaP cells were cultured in RPMI 1640 medium with L-glutamine & 25 mM HEPES (Corning) supplemented with 10% (v/v) fetal bovine serum (FBS; Sigma) and 1× (v/v) Antibiotic-Antimycotic solution (Corning). MCF-7 and HeLa cells were cultured in DMEM medium with 4.5 g/L glucose (Corning), supplemented with 10% FBS, 1× (v/v) Glutagro (Corning), and 1× (v/v) Antibiotic-Antimycotic solution. […]
Analysis of mRNA abundance: Each cell line was grown as a monolayer in 12- or 24-well plates and treated as described in “Cell culture and compound treatment”. […] Relative abundance of mature miRNAs was calculated by normalizing to RNU6, and relative abundance for pri-miRNAs and mRNAs was calculated by normalizing to 18S ribosomal RNA, using the AAC, method. […]

SMILES: C#CCN(CC(N)=O)C(=O)C[C@H](Cc1c[nH]c2ccccc12)NC(=O)[C@@H]1C[C@H](NC(=O)Cn2c(=O)[nH]c3ccccc3c2=O)CN1 [Compound 9]
- rescue of migratory phenotype [1]: did not inhibit biogenesis of the mutated pri-miR-27a in MCF-10A (FIG. 3B) or rescue the migratory phenotype
- only statistically significant effect across the miRNome (MDA-MB-231 cells): downregulation of miR-27a
- binding (competitive) (mutant pri-miR-27a): binding was abolished
- inhibition of miR-27a (comparison of 5, 7, 9, 10) (pri-miR-27a [2]): inhibited miR-27a to a greater extent than 5 and 7
- pri-miR-27a levels (pri-miR-27a [2]; 48 h): increased
- IC50 (pri-miR-27a [2]; 48 h, read-out: IC50 for reduction of mature miR-27a levels): ~1000 nM
- dose with significant inhibition of miR-27a processing (pri-miR-27a [3]): 100 nM
